# Results: patent US8809365B2, “1-substituted 2-azabicyclo [3.1.1] heptyl derivatives useful as nicotinic acetylcholine receptor modulators for treating neurologic disorders” (Universiteit Gent, priority 2009, dated 2014)
# What was measured:
# [1] = molecular target: human α7 neuronal nicotinic receptor (Homo sapiens, UniProt P36544); assay: biochemical; assay type: binding; conditions: read-out: % inhibition N neuronal alpha-BGTX-sensitive (alpha 7) (antagonist radioligand)
# [2] = molecular target: human muscle-type nicotinic receptor (Homo sapiens, UniProt P02708+P07510+Q07001); assay: biochemical; assay type: binding; conditions: read-out: % inhibition N muscle-type (h) (antagonist radioligand)
# Sequence of human muscle-type nicotinic receptor (P07510 23-517): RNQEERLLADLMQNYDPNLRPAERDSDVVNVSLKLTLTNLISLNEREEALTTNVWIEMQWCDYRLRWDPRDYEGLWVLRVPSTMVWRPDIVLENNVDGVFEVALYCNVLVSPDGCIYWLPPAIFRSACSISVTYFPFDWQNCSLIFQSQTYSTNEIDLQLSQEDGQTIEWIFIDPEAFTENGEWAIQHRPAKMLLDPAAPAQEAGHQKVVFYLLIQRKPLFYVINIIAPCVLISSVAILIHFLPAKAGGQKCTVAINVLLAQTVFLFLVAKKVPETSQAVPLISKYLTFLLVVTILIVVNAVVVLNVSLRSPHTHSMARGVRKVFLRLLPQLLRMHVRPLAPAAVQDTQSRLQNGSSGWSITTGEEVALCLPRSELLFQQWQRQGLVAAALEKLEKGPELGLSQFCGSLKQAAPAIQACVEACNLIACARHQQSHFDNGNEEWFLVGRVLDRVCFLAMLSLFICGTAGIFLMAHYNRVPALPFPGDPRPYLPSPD
# Sequence of human muscle-type nicotinic receptor (Q07001 22-517): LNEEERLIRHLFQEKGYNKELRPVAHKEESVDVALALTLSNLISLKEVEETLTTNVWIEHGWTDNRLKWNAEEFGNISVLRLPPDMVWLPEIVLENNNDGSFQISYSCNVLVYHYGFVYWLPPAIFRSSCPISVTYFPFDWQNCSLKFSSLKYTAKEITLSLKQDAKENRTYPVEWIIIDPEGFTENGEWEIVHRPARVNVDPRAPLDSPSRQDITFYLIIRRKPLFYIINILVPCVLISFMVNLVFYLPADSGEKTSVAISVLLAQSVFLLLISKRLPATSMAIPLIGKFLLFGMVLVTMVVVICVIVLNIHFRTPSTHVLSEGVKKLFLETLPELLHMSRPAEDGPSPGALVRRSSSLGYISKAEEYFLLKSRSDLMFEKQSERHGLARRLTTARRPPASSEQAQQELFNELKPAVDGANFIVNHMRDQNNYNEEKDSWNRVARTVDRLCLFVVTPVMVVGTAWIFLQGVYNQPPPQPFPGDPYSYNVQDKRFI
# Sequence of human muscle-type nicotinic receptor (P02708 21-457): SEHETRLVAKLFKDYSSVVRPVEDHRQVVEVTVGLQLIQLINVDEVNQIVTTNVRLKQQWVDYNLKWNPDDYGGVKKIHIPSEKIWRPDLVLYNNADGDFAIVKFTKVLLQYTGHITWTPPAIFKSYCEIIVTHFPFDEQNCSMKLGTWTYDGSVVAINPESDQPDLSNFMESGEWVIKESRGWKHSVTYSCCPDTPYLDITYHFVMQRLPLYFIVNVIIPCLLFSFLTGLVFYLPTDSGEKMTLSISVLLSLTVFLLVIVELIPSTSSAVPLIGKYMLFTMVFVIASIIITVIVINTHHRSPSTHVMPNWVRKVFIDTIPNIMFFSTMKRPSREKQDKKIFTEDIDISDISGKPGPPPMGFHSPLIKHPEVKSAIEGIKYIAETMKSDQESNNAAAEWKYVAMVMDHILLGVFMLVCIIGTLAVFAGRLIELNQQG
# Sequence of human muscle-type nicotinic receptor (P11230 24-501, further chain): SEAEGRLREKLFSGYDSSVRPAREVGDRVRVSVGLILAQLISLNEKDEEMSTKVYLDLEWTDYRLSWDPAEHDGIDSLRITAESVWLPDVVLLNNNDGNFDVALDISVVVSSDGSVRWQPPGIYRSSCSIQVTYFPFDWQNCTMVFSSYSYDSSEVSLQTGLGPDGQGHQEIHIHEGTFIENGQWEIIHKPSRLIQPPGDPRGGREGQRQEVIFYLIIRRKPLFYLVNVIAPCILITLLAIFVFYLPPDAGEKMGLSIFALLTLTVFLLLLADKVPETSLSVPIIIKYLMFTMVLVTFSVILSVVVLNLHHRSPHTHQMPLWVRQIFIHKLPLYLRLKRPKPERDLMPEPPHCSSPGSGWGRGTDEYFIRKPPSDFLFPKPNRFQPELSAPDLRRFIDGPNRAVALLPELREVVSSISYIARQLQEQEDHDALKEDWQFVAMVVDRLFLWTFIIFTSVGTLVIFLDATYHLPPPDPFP
# [3] = molecular target: T1, human dopamine D1 receptor (Homo sapiens, UniProt P21728); assay: Human dopamine D1 receptor radioligand binding assay (antagonist radioligand); conditions: 1 μmmole test compound; 0.3 nM [3H]SCH 23390; transfected CHO cell membranes; one single experiment; 0.0003 µM
# T1 construct: expressed in transfected cells; host or cells: CHO cells (membrane homogenates)
# T1 sequence (P21728 whole entry): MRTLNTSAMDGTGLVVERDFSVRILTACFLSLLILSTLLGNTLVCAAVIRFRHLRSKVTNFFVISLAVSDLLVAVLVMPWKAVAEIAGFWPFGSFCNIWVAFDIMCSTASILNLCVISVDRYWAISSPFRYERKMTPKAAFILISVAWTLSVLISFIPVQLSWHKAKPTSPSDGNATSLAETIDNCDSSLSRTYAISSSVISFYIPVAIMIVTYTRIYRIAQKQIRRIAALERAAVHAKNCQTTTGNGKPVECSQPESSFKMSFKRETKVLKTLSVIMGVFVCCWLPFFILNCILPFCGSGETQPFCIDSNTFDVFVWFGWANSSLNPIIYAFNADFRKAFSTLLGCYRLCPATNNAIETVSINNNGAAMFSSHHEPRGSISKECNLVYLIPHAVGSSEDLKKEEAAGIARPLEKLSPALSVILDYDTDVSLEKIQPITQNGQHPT
# Protocol: Human Dopamine D1 Receptor (Antagonist Radioligand):
# The purpose is to evaluate the affinity of compounds for the human dopamine D1 receptor in transfected CHO cells determined in a radioligand binding assay according to Zhou et al in Nature (1990) 347:76. The experimental protocol is as follows. Cell membrane homogenates (48 μg protein) are incubated for 60 minutes at 22° C. with 0.3 nM [^3H]SCH 23390 in the absence or presence of the test compound in a buffer containing 50 mM Tris-HCl (pH 7.4), 5 mM KCl, 5 mM MgCl2, 1.5 mM CaCl2 and 5 mM EDTA. Non-specific binding is determined in the presence of 1 μM SCH 23390. Following incubation, the samples are filtered rapidly under vacuum through glass fiber filters (GF/B, Packard) presoaked with 0.3% PEI and rinsed several times with ice-cold 50 mM Tris-HCl using a 96-sample cell harvester (Unifilter, Packard). The filters are dried then counted for radioactivity in a scintillation counter (Topcount, Packard) using a scintillation cocktail (Microscint 0, Packard). The results are expressed as a percent inhibition of the control radioligand specific binding. The standard reference compound is SCH 23390, which is tested in each experiment at several concentrations to obtain a competition curve from which its IC50 is calculated, and from which the % inhibition at 1 μM as indicated in the following table is obtained.
# [4] = relative to morphine; cited from earlier work
# Sequence of human α7 neuronal nicotinic receptor (P36544 23-502): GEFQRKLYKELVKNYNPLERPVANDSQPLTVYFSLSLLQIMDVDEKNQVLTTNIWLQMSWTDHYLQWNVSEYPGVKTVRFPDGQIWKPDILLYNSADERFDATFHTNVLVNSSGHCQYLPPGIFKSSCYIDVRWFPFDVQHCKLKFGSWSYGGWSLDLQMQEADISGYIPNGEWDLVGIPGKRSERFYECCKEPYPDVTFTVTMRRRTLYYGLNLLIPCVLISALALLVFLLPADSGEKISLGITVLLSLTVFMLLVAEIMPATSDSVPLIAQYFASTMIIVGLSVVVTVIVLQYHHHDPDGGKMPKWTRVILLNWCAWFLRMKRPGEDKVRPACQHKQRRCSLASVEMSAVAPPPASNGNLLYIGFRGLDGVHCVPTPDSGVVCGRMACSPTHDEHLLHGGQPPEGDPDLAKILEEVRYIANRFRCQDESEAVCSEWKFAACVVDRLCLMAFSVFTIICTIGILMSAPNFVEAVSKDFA
compound,measurement,setting,value
CCN1CCC2CC1(C(O)c1cccnc1)C2 (stereo not shown) [Compound 11],inhibition at 50 pM,[1],-1%
same,inhibition at 0.0005 µM,[2],17%
CCN1CCC2CC1(C(O)c1cccnc1)C2 (stereo not shown) [Compound 19a],% inhibition D1 (h) (antagonist radioligand),[3],9%
Clc1ccc(C2CC3CCC2N3)cn1 (stereo not shown) [epibatidine],analgesic potency higher than that of morphine,[4],about 200 fold
